Assay results taken from article PMC9979339 (ACS Omega, 2023).
Entries after “also recorded” stand apart in the source; their conditions may differ.

How the values were obtained:
ABTS scavenging assay = assay type: biochemical; settings: for % ABTS scavenging mean ± SEM: n = 3; for IC50: read-out: IC50 ABTS scavenging
[1] = DPPH free radical scavenging assay; assay type: biochemical; settings: for % DPPH scavenging mean ± SEM: n = 3; for IC50: read-out: IC50 DPPH scavenging
[2] = biological target: electric eel acetylcholinesterase (type-VI-S) (Electrophorus electricus, UniProt O42275); assay: AChE inhibition, Ellman's colorimetric method; assay type: biochemical; settings: for IC50: IC50 AChE inhibition, in vitro; for inhibition at 31.25 µM: read-out: % AChE inhibition mean ± SEM, 31.25 μM, n = 3; for inhibition at 62.5 µM: read-out: % AChE inhibition mean ± SEM, 62.5 μM, n = 3; for inhibition at 125 µM: read-out: % AChE inhibition mean ± SEM, 125 μM, n = 3; for inhibition at 250 µM: read-out: % AChE inhibition mean ± SEM, 250 μM, n = 3; for inhibition at 500 µM: read-out: % AChE inhibition mean ± SEM, 500 μM, n = 3; for inhibition at 1000 µM: read-out: % AChE inhibition mean ± SEM, 1000 μM, n = 3
[3] = biological target: equine butyrylcholinesterase (Equus caballus, UniProt P81908); assay: BuChE inhibition, Ellman's colorimetric method; assay type: biochemical; settings: for IC50: IC50 BuChE inhibition, in vitro; for inhibition at 31.25 µM / inhibition at 62.5 µM / inhibition at 125 µM / inhibition at 250 µM / inhibition at 500 µM / inhibition at 1000 µM: read-out: % BuChE inhibition mean ± SEM
[4] = tested on: scopolamine-induced memory impairment in mice; assay: Y-maze spontaneous alternation, scopolamine-induced amnesia; assay type: in vivo
[5] = tested on: scopolamine-induced memory impairment in mice; assay: Novel object recognition test; assay type: in vivo
[6] = 30 mg/kg plus scopolamine 1 mg/kg
[7] = 1, 10 and 30 mg/kg plus scopolamine 1 mg/kg
[8] = 10 and 30 mg/kg plus scopolamine 1 mg/kg

Chain of electric eel acetylcholinesterase (type-VI-S) (O42275 24-633): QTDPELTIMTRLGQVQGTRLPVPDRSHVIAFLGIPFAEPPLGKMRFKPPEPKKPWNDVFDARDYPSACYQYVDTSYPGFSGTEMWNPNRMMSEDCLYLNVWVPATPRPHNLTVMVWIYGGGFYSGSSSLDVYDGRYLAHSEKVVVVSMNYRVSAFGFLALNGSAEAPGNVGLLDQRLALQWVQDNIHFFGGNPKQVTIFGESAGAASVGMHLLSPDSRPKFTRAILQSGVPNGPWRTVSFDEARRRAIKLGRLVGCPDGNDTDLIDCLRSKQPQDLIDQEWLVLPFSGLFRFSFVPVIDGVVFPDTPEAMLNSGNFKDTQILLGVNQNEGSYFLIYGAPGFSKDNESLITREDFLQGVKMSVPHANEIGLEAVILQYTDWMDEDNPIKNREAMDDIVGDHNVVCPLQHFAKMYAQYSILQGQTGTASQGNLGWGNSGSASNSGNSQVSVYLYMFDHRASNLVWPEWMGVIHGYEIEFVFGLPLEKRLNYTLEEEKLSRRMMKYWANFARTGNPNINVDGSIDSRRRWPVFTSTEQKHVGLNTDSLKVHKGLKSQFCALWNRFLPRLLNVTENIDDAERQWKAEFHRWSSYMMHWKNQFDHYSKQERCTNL
Chain of equine butyrylcholinesterase (P81908 whole entry): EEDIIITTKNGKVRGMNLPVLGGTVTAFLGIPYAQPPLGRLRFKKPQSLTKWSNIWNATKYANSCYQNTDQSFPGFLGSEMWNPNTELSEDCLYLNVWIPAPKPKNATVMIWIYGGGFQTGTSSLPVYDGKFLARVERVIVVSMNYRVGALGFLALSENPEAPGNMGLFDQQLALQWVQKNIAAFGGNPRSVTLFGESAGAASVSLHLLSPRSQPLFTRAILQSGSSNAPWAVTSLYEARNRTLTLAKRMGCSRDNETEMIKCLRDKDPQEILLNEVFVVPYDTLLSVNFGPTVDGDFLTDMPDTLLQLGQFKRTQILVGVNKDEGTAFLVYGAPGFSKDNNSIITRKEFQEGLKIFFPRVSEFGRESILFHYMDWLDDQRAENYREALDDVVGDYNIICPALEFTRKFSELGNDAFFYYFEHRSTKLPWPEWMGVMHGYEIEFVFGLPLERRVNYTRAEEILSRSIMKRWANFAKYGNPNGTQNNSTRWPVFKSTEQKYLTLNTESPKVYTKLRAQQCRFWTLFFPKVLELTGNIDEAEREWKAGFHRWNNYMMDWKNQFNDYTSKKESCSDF

SMILES | % ABTS scavenging mean ± SEM (ABTS scavenging assay; 31.25 μM) [%] | % ABTS scavenging mean ± SEM (ABTS scavenging assay; 62.5 μM) [%] | % ABTS scavenging mean ± SEM (ABTS scavenging assay; 125 μM) [%] | % ABTS scavenging mean ± SEM (ABTS scavenging assay; 250 μM) [%] | % ABTS scavenging mean ± SEM (ABTS scavenging assay; 500 μM) [%] | % ABTS scavenging mean ± SEM (ABTS scavenging assay; 1000 μM) [%] | IC50 (ABTS scavenging assay) [µM] | % DPPH scavenging mean ± SEM ([1]; 31.25 μM) [%] | % DPPH scavenging mean ± SEM ([1]; 125 μM) [%] | % DPPH scavenging mean ± SEM ([1]; 250 μM) [%] | % DPPH scavenging mean ± SEM ([1]; 500 μM) [%] | % DPPH scavenging mean ± SEM ([1]; 1000 μM) [%] | IC50 [1] [µM] | IC50 [2] [µM] | inhibition at 31.25 µM [3] [%] | inhibition at 62.5 µM [3] [%] | inhibition at 125 µM [3] [%] | inhibition at 250 µM [3] [%] | inhibition at 500 µM [3] [%] | inhibition at 1000 µM [3] [%] | other results
O=C1O[C@H]([C@@H](O)CO)C(O)=C1O [ascorbic acid, reference compound] | 35.27 ± 0.67 | 44.58 ± 1.11 | 51.89 ± 0.59 | 63.11 ± 1.22 | 73.22 ± 0.21 | 82.14 ± 0.19 | 125 | 29.20 ± 1.03 | 52.56 ± 0.69 | 65.19 ± 0.29 | 74.44 ± 0.48 | 85.08 ± 0.32 | 61 | – | – | – | – | – | – | – | % DPPH scavenging mean ± SEM ([1]; 62.5 μM): 47.65 ± 0.2a %
O=C1c2ccccc2C(=O)N1c1ccc(C(F)(F)F)cc1 [compound 1, 2-(4-(trifluoromethyl)phenyl)isoindoline-1,3-dione] | 11.47 ± 0.54 | 28.21 ± 0.32 | 42.10 ± 1.11 | 49.72 ± 0.72 | 66.65 ± 0.61 | 70.55 ± 0.32 | 205 | 30.21 ± 0.17 | 52.16 ± 0.15 | 67.85 ± 0.18 | 76.65 ± 0.30 | 85.87 ± 0.23 | 105 | 10 | 41.39 ± 0.07 | 47.29 ± 0.12 | 54.29 ± 0.19 | 61.76 ± 0.49 | 67.4 ± 0.89 | 75.4 ± 1.39 | inhibition at 31.25 µM [2]: 55.68 ± 0.52%; inhibition at 62.5 µM [2]: 61.77 ± 0.49%; inhibition at 125 µM [2]: 77.4 ± 0.9%; inhibition at 250 µM [2]: 84.4 ± 1.39%; inhibition at 500 µM [2]: 81.44 ± 0.29%; inhibition at 1000 µM [2]: 98.51 ± 0.65%; IC50 [3]: 80 µM; Y-maze spontaneous alternation vs scopolamine group ([4]; 10 and 30 mg/kg plus scopolamine): significant increase; NORT long-term memory: % discrimination index [5, 6]: significantly higher; NORT short-term memory: exploration of novel vs familiar object in test phase [5, 7]: statistically not significant; NORT long-term memory: % discrimination index [5, 8]: significantly higher; NORT short-term memory: % discrimination index vs scopolamine alone [5, 8]: significantly greater; also recorded: significantly higher
O=C1c2ccccc2C(=O)N1c1ccc(Br)cc1 [compound 2, 2-(4-bromophenyl)isoindoline-1,3-dione] | 10.47 ± 0.25 | 22.12 ± 0.32 | 34.11 ± 1.21 | 41.72 ± 0.81 | 57.76 ± 0.75 | 62.57 ± 0.50 | 350 | 15.21 ± 0.19 | 40.16 ± 0.14 | 47.85 ± 0.17 | 56.65 ± 0.30 | 69.87 ± 0.23 | 340 | 140 | 45.45 ± 0.22 | 51.34 ± 0.03 | 56.28 ± 0.03 | 64.36 ± 0.03 | 71.25 ± 0.12 | 78.2 ± 0.07 | inhibition at 31.25 µM [2]: 38.36 ± 0.22%; inhibition at 62.5 µM [2]: 41.35 ± 0.13%; inhibition at 125 µM [2]: 47.14 ± 0.09%; inhibition at 250 µM [2]: 54.33 ± 0.22%; inhibition at 500 µM [2]: 61.1 ± 1.95%; inhibition at 1000 µM [2]: 66.7 ± 5.14%; IC50 [3]: 50 µM; NORT short-term memory: exploration of novel vs familiar object in test phase [5, 7]: did not exert a significant effect
COc1cc2c(cc1OC)C(=O)C(CC1CCN(Cc3ccccc3)CC1)C2 (stereo not shown) [donepezil, reference compound] | – | – | – | – | – | – | – | – | – | – | – | – | – | – | 69.31 ± 0.06 | 74.42 ± 0.06 | 78.39 ± 0.06 | 82.49 ± 0.08 | 86.42 ± 0.11 | 91.29 ± 0.06 | Y-maze spontaneous alteration (% alteration) ([4]; donepezil 2 mg/kg plus scopolamine, n = 8): 83.83 ± 2.64; NORT short-term memory: exploration of novel vs familiar object in test phase ([5]; donepezil 2 mg/kg plus scopolamine 1 mg/kg): statistically not significant
Cc1ccc(N2C(=O)c3ccccc3C2=O)c(C)c1 [compound 3, 2-(2,4-dimethylphenyl)isoindoline-1,3-dione] | 18.47 ± 0.83 | 35.22 ± 0.50 | 46.11 ± 1.21 | 54.72 ± 0.80 | 68.76 ± 0.72 | 73.57 ± 0.41 | 220 | 25.21 ± 0.15 | 40.16 ± 0.15 | 55.85 ± 0.18 | 77.65 ± 0.31 | 80.87 ± 0.25 | 150 | 18 | 59.49 ± 0.11 | 63.41 ± 0.14 | 69.37 ± 0.02 | 75.65 ± 0.03 | 82.4 ± 0.06 | 87.29 ± 0.03 | % AChE inhibition mean ± SEM ([2]; 1000 μM, n = 3): 95.24 ± 0.12%; inhibition at 31.25 µM [2]: 65.2 ± 0.75%; inhibition at 62.5 µM [2]: 52.5 ± 0.92%; inhibition at 125 µM [2]: 77.32 ± 0.21%; inhibition at 250 µM [2]: 84.18 ± 0.1%; inhibition at 500 µM [2]: 91.47 ± 0.26%; inhibition at 1000 µM [2]: 95.7 ± 0.12%; IC50 [3]: 11 µM; NORT short-term memory: % discrimination index vs scopolamine alone [5, 6]: significantly higher; NORT long-term memory: % discrimination index [5, 8]: significantly higher
